Assay results from patent EP4603105A1, “PHARMACEUTICAL COMPOSITION CONTAINING CYCLIC COMPOUND HAVING SELECTIVE KRAS INHIBITORY EFFECT AGAINST HRAS AND NRAS” (CHUGAI SEIYAKU KABUSHIKI KAISHA, priority 2022, dated 2024).
Where a SMILES comes first, the peptide text is derived from it. Bridges are numbered along the chain shown (N, C = ends). [ ]: non-standard residue; d: D form. The star is where a group is joined. hPhe(3,5-F2-4-CF3) = N[C@@H](CCc1cc(F)c(C(F)(F)F)c(F)c1)C(=O)O; hPhe(3-Cl-4-CF3) = N[C@@H](CCc1ccc(C(F)(F)F)c(Cl)c1)C(=O)O; NPrPhe(4-CF3) = CCCN[C@@H](Cc1ccc(C(F)(F)F)cc1)C(=O)O; NMeGly(cPent) = CN[C@H](C(=O)O)C1CCCC1; Pro(4,4-F2) = O=C(O)[C@@H]1CC(F)(F)CN1; αMeCha = C[C@](N)(CC1CCCCC1)C(=O)O; NMeD = CN[C@@H](CC(=O)O)C(=O)O; NMeL = CN[C@@H](CC(C)C)C(=O)O; Morpholide = C1CN(*)CCO1; NMeA = CN[C@@H](C)C(=O)O; Ac5c = NC1(C(=O)O)CCCC1; Aze = O=C(O)[C@@H]1CCN1; Sar = CNCC(=O)O

Assays:
[1] = molecular target: GDP-bound NRAS wild-type protein (Homo sapiens, UniProt P01111); test: Binding to NRAS by surface plasmon resonance (SPR), KD and KD ratio to KRAS
Outline: (§1)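 Measured at 30°C: SPR with GDP-loaded, E. coli-expressed biotin-Avi RAS captured (~100–300 RU), ascending 75 s compound injections, HBS pH 7.4 with GDP, MgCl2, 4% DMSO. KD from 1:1 fit.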

HRAS wild-type protein = HRAS wild-type protein (Homo sapiens, UniProt P01112); test: Binding to HRAS by surface plasmon resonance (SPR), KD and KD ratio to KRAS
Outline: as §1

[2] = system: human lung cancer strain NCI-H441; type: cell-based
Outline: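 Signal came from […] measured per well once the reagent was added. Beforehand, cells were cultured at 37°C and 5% carbon dioxide on a compound series serially diluted in dimethyl sulfoxide.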

[3] = ratio of KD for GDP-bound NRAS wild-type protein to KD for KRAS
[4] = ratio of KD for HRAS wild-type protein to KD for KRAS
[5] = ratio of the KD value with respect to GDP-bound NRAS wild-type protein to the KD value with respect to KRAS
[6] = ratio of the KD value with respect to HRAS wild-type protein to the KD value with respect to KRAS

Chain of HRAS wild-type protein (P01112 whole entry): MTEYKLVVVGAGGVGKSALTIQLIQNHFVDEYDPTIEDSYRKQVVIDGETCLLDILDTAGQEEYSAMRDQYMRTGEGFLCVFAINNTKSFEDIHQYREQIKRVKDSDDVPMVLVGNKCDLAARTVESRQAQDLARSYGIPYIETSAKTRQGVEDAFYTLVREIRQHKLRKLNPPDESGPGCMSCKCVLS
Chain of GDP-bound NRAS wild-type protein (P01111 whole entry): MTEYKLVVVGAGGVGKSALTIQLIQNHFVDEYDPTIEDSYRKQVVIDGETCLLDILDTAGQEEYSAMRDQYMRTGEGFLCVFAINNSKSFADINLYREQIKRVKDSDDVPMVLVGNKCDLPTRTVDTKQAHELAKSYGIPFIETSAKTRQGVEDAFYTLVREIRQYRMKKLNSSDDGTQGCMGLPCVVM

Compound | IC50 [2] [nM] | NRAS /KRAS [1, 3] | HRAS /KRAS (HRAS wild-type protein; [4]) | NRAS /KRAS ([1]; ratio of KD value for GDP-bound NRAS wild-type protein to KD value for KRAS (SPR)) | HRAS /KRAS (HRAS wild-type protein; ratio of KD value for HRAS wild-type protein to KD value for KRAS (SPR)) | NRAS /KRAS [1, 5] | HRAS /KRAS (HRAS wild-type protein; [6])
CCCN1C(=O)CN(C)C(=O)CN(C)C(=O)[C@H]([C@@H](C)CC)NC(=O)[C@H](CC(C)C)N(C)C(=O)C[C@@H](C(=O)N2CCOCC2)N(C)C(=O)[C@H](C2CCCC2)N(C)C(=O)[C@](C)(CC2CCCCC2)NC(=O)[C@@H]2CCCN2C(=O)[C@H](CCc2cc(F)c(C(F)(F)F)c(F)c2)NC(=O)CN(C)C(=O)[C@@H]1Cc1ccc(C(F)(F)F)cc1 [PP0760] ([NMeL]I[Sar][Sar][NPrPhe(4-CF3)][Sar][hPhe(3,5-F2-4-CF3)]P[αMeCha][NMeGly(cPent)][NMeD]-Morpholide; lactam N-11) | 310 |  |  |  |  | B (a compound having 3 or more and less than 10 is denoted as B) | C (A compound having a KD ratio of 0.1 or more and less than 3 is denoted as C)
CCCN1C(=O)[C@@H]2CCN2C(=O)[C@H](C)N(C)C(=O)[C@H]([C@@H](C)CC)NC(=O)[C@H](CC(C)C)N(C)C(=O)C[C@@H](C(=O)N2CCOCC2)NC(=O)[C@H](C2CCCC2)N(C)C(=O)C2(CCCC2)NC(=O)[C@@H]2CC(F)(F)CN2C(=O)[C@H](CCc2ccc(C(F)(F)F)c(Cl)c2)NC(=O)CN(C)C(=O)[C@@H]1Cc1ccc(C(F)(F)F)cc1 [PP0345] ([NMeL]I[NMeA][Aze][NPrPhe(4-CF3)][Sar][hPhe(3-Cl-4-CF3)][Pro(4,4-F2)][Ac5c][NMeGly(cPent)]D-Morpholide; lactam N-11) | 54.9 | C (A compound having a KD ratio of 0.1 or more and less than 3 is denoted as C) | B (a compound having 3 or more and less than 10 is denoted as B) |  |  |  | 
CCO[C@@H]1C[C@H]2C(=O)NC3(CCC3)C(=O)N(C)[C@@H](C3CCCC3)C(=O)N(CC)[C@H](C(=O)N3CCOCC3)CC(=O)N(C)[C@@H](CC(C)C)C(=O)N[C@@H]([C@@H](C)CC)C(=O)N(C)CC(=O)N(C)[C@H]3CCCCN(C3=O)[C@@H](Cc3ccc(C(F)(F)F)cc3)C(=O)N(C)CC(=O)N[C@@H](CCc3cc(F)c(C(F)(F)F)c(F)c3)C(=O)N2C1 [PP0648] | 20.8 |  |  |  |  | B (a compound having 3 or more and less than 10 is denoted as B) | B (a compound having 3 or more and less than 10 is denoted as B)

Second part, led by results:

IC50 [2] [nM] | Compound | NRAS /KRAS [1, 3] | HRAS /KRAS (HRAS wild-type protein; [4]) | NRAS /KRAS ([1]; ratio of KD value for GDP-bound NRAS wild-type protein to KD value for KRAS (SPR)) | HRAS /KRAS (HRAS wild-type protein; ratio of KD value for HRAS wild-type protein to KD value for KRAS (SPR)) | NRAS /KRAS [1, 5] | HRAS /KRAS (HRAS wild-type protein; [6])
63 | CCC[C@H]1C(=O)N[C@@H](C2CCOCC2)C(=O)N(C)CC(=O)N(C)[C@H]2C/C=C\CCN(C2=O)[C@@H](Cc2ccc(C(F)(F)F)cc2)C(=O)N(C)CC(=O)N[C@@H](CCc2ccc(C(F)(F)F)c(Cl)c2)C(=O)N2C[C@H](OCC)C[C@H]2C(=O)NC2(CC(C)(C)C2)C(=O)N(C)[C@@H](C2CCCC2)C(=O)N(C)[C@H](C(=O)N(C)C)CC(=O)N1C [PP3000] | AA (a compound having 20 or more is denoted as AA) | A (a compound having 10 or more and less than 20 is denoted as A) |  |  |  | 
7.6 | C#CC[C@H]1C(=O)N[C@@H]([C@@H](C)CC)C(=O)N(C)CC(=O)N(C)[C@H]2C/C=C\CCN(C2=O)[C@@H](Cc2ccc(C(F)(F)F)cc2)C(=O)N(C)CC(=O)N[C@@H](CCc2ccc(C(F)(F)F)c(Cl)c2)C(=O)N2C[C@H](OCC)C[C@H]2C(=O)NC2(CC(C)(C)C2)C(=O)N(C)[C@@H](C2CCCC2)C(=O)N(C)[C@H](C(=O)N(C)CC)CC(=O)N1C [PP2844] | A (a compound having 10 or more and less than 20 is denoted as A) | A (a compound having 10 or more and less than 20 is denoted as A) |  |  |  | 
6 | CCCOC[C@H]1C(=O)N[C@@H]([C@@H](C)CC)C(=O)N(C)CC(=O)N(C)[C@H]2C/C=C\CCN(C2=O)[C@@H](Cc2ccc(C(F)(F)F)cc2)C(=O)N(C)CC(=O)N[C@@H](CCc2cc(F)c(C(F)(F)F)c(F)c2)C(=O)N2C[C@H](OCC)C[C@H]2C(=O)NC2(CC(C)(C)C2)C(=O)N(C)[C@@H](C2CCCC2)C(=O)N(C)[C@H](C(=O)N(C)CCC)CC(=O)N1C [PP1673] |  |  | A (a compound having 10 or more and less than 20 is denoted as A) | A (a compound having 10 or more and less than 20 is denoted as A) |  | 
469 | CCO[C@@H]1C[C@H]2C(=O)NC3(CCC3)C(=O)N(C)[C@@H](C3CCCC3)C(=O)N(C)[C@H](C(=O)N(C)C)CC(=O)N(C)[C@@H](CC)C(=O)N[C@@H]([C@@H](C)CC)C(=O)N(C)[C@@H](C)C(=O)N(C)[C@H]3C/C=C\CCN(C3=O)[C@@H](Cc3ccc(C(F)(F)F)cc3)C(=O)N(C)CC(=O)N[C@@H](CCc3cc(F)c(C(F)(F)F)c(F)c3)C(=O)N2C1 [PP1054] | A (a compound having 10 or more and less than 20 is denoted as A) | B (a compound having 3 or more and less than 10 is denoted as B) |  |  |  | 
38.6 | CCO[C@@H]1C[C@H]2C(=O)NC3(CC(F)(F)C3)C(=O)N(C)[C@@H](C3CCCC3)C(=O)N(C)[C@H](C(=O)N3CCOCC3)CC(=O)N(C)[C@@H](COC)C(=O)N[C@@H]([C@@H](C)CC)C(=O)N(C)CC(=O)N(C)[C@H]3CCCCCN(C3=O)[C@@H](Cc3ccc(C(F)(F)F)cc3)C(=O)N(C)CC(=O)N[C@@H](CCc3cc(F)c(C(F)(F)F)c(F)c3)C(=O)N2C1 [PP0843] | B (a compound having 3 or more and less than 10 is denoted as B) | B (a compound having 3 or more and less than 10 is denoted as B) |  |  |  | 
